{"source": "patent US20210188813A1", "about": "“EZH2 INHIBITOR AND PHARMACEUTICALLY ACCEPTABLE SALTS AND POLYMORPHIC SUBSTANCES THEREOF, AND APPLICATION OF EZH2 INHIBITOR” (SHANGHAI HAIYAN PHARMACEUTICAL TECHNOLOGY CO., LTD., priority 2018, published 2021)", "key": {"PRC2 (EZH2-Y641F)": {"molecular_target": "T1, PRC2 (EZH2-Y641F) (Homo sapiens, UniProt Q15910, Y641F)", "T1 construct": "purchased Active motif", "T1 sequence (Q15910 whole entry Y641F)": "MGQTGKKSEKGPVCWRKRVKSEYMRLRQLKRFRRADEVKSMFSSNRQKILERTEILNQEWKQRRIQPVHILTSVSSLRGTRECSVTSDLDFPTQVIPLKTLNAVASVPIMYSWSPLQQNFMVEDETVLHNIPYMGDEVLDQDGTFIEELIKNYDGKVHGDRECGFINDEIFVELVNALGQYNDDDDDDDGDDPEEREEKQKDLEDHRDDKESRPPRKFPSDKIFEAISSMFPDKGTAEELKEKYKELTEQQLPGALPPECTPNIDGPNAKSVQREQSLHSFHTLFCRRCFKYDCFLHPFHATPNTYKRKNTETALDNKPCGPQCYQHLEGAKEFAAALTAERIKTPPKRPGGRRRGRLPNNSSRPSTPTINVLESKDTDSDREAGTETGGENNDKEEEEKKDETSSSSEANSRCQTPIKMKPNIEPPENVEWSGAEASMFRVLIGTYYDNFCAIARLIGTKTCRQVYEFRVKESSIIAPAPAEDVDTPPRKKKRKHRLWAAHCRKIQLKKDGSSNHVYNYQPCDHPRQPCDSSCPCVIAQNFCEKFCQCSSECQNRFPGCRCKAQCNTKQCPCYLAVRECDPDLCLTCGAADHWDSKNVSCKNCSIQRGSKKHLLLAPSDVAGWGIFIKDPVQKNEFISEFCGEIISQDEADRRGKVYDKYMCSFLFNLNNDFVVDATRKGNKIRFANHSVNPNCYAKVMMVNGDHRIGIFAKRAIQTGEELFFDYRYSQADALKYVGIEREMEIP", "T1 sequence (O75530 whole entry partner)": "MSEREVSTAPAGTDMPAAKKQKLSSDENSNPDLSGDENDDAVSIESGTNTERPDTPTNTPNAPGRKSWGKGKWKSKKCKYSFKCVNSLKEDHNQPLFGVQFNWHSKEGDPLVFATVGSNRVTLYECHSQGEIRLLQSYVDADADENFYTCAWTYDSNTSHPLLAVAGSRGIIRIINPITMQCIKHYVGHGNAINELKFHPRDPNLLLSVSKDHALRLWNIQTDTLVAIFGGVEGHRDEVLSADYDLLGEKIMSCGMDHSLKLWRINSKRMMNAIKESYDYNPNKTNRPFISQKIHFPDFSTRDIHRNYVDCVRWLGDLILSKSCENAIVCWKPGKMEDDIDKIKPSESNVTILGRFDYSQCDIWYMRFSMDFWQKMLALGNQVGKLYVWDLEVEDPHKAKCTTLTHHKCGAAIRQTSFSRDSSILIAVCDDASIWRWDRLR", "T1 sequence (Q15022 whole entry partner)": "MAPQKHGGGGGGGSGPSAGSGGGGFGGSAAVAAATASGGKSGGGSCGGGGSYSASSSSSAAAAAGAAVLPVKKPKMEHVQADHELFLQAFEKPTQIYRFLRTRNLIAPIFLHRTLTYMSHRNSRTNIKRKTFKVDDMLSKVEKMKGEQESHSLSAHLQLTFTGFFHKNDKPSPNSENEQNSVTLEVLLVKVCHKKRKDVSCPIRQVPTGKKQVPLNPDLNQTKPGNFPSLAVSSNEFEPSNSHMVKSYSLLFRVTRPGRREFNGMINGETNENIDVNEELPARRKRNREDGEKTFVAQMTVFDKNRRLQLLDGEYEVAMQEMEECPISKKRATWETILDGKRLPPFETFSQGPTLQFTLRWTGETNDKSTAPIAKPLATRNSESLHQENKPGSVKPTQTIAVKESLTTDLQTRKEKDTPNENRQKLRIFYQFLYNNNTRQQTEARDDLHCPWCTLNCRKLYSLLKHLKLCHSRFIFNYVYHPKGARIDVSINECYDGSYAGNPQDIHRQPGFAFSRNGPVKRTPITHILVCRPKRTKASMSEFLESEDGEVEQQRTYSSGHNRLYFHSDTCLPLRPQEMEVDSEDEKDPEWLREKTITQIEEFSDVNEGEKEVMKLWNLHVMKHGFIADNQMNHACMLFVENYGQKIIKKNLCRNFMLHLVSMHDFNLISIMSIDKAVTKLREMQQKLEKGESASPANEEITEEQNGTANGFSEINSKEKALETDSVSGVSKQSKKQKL", "T1 sequence (Q09028 whole entry partner)": "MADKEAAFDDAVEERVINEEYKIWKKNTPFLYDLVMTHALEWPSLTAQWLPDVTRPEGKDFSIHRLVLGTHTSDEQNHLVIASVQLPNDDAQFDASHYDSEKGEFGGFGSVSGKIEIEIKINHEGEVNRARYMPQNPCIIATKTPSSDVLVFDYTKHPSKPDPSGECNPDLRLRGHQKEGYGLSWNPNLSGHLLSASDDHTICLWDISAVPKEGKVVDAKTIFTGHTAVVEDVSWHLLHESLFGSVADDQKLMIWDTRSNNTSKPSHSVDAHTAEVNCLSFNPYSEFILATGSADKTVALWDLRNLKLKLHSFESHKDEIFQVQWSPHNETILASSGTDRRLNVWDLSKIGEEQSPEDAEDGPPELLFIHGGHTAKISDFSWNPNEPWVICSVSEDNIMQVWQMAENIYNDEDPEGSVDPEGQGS", "T1 sequence (Q6ZN18 whole entry partner)": "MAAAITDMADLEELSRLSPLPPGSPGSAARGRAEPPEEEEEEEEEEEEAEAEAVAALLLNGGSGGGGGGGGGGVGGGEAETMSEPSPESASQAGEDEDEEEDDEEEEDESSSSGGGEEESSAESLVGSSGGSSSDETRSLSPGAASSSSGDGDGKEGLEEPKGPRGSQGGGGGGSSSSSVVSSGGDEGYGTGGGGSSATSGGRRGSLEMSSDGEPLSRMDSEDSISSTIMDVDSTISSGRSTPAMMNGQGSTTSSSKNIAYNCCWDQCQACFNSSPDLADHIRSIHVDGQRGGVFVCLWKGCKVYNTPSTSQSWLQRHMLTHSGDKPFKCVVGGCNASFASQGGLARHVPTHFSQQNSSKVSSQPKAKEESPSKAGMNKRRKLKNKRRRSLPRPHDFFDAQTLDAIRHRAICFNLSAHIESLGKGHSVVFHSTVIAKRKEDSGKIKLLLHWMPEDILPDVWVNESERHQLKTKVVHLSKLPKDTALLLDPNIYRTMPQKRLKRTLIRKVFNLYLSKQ", "assay": "In vitro methyltransferase assay", "format": "biochemical", "procedure": "Recombinant PRC2 (EZH2-Y641F) was purchased from Active motif, S-adenosyl-methionin chloride (SAM) and Poly-L-lysine (PLL) were purchased from Sigma-Aldrich, H3(1-50)K27me1 peptide was purchased from Cisbio. LANCEUltra (Perkinelmer) system was used for detection. For the enzyme activity test, tested compounds are 1:3 diluted for 8-points, and added into each well, then 100 ng enzyme is added. And then the buffer [20 mM Tris pH8.5, 2 mM MgCl2, 0.01% Tween-20, 1 mM TCEP] containing […]/250 nM H3 (1-50)K27me1 premixtures are added. After 3 hours enzyme reaction at RT, the premixed detection buffer (PLL, Europium antibody and Ulight) is added, and react for 1 h at RT, then read fluorescence on Tecan infinite pro. IC50s are counted by XLfit using a four-parameter model."}, "Pfeiffer cells": {"tested_on": "Pfeiffer cells", "assay": "Cell proliferation assay, Pfeiffer", "format": "cell-based", "details": "for IC50: Homo sapiens, Pfeiffer, 144 h, 6 days' growth, cell counting kit-8", "procedure": "(§1) Cell lines Pfeiffer (CRL-2632), suDHL-6 (CRL-2959) and suDHL-10 (CRL-2963) were obtained from ATCC. All cell lines were cultured in RPMI-1640 medium (Gibco) plus 10% FBS (Gibco). Cells are harvested by centrifuge and densities are determined using a CounterStar cell counter. Appropriate number of cells are plated in a96-well culture plate and pre-incubate overnight. Tested compounds are 1:3 diluted for 8-points and added into each well. After 6 days' growth, cell counting kit-8 (Dojindo) is used to detect cell viability and read on Tecan infinite pro. IC50s are counted by XLfit using a four-parameter model."}, "SU-DHL-10": {"tested_on": "SU-DHL-10", "assay": "Cell proliferation assay, SU-DHL-10", "format": "cell-based", "procedure": "as §1"}, "[1]": {"assay": "Dynamic solubility experiment", "format": "physicochemical", "details": "for solubility at 24 h: thermodynamic from solid, room temperature", "source_text": "The free base samples and the two crystal forms were plotted separately in the experiment."}, "SU-DHL-6": {"tested_on": "SU-DHL-6", "assay": "Cell proliferation assay, SU-DHL-6", "format": "cell-based", "procedure": "as §1"}}, "note": "Like-named read-outs stand apart in the source and are kept apart here."}
{"smiles": "CCN(c1cc(C(=O)NCc2c(C)cc(C)[nH]c2=O)c(C)c2c1cnn2C)C1CCC(N(C)C)CC1", "note": "(stereo not shown) [D2]", "values": [{"measurement": "IC50", "setting": "PRC2 (EZH2-Y641F)", "value": 4820, "unit": "nM"}, {"measurement": "IC50", "setting": "Pfeiffer cells", "value": "> 3000", "unit": "nM"}]}
{"smiles": "CCN(c1cc(C(=O)NCc2c(C)cc(C)[nH]c2=O)c(C)c2c1cnn2C)C1CCC(N2CC(OC)C2)CC1", "note": "(stereo not shown) [D3]", "values": [{"measurement": "IC50", "setting": "PRC2 (EZH2-Y641F)", "value": "> 10000", "unit": "nM"}, {"measurement": "IC50", "setting": "Pfeiffer cells", "value": "> 3000", "unit": "nM"}]}
{"smiles": "CCN(c1cc(C(=O)NCc2c(C)cc(C)[nH]c2=O)c(C)c2c1cnn2C)C1CCN(CC(F)(F)F)CC1", "note": "[D4]", "values": [{"measurement": "IC50", "setting": "PRC2 (EZH2-Y641F)", "value": "> 10000", "unit": "nM"}, {"measurement": "IC50", "setting": "Pfeiffer cells", "value": "> 3000", "unit": "nM"}]}
{"smiles": "CCc1c(C(=O)NCc2c(C)cc(C)[nH]c2=O)cc2c(cnn2C)c1N(CC)[C@H]1CC[C@H](N2CC(OC)C2)CC1", "note": "[Free base, N-((4,6-dimethyl-2-oxo-1,2-dihydropyridin-3-yl)methyl)-5-ethyl-4-(ethyl((1S,4S)-4-(3-methoxyazetidin-1-yl)cyclohexyl)amino)-1-methyl-1H-indazole-6-carboxamide]", "values": [{"measurement": "IC50", "setting": "PRC2 (EZH2-Y641F)", "value": 12, "unit": "nM"}, {"measurement": "inhibitory activity against EZH2 Y641F enzyme", "setting": "PRC2 (EZH2-Y641F)", "value": "high inhibitory activity"}, {"measurement": "inhibitory activity against EZH2 Y641F enzyme", "setting": "PRC2 (EZH2-Y641F); listed as compound of formula X", "value": "high inhibitory activities"}, {"measurement": "inhibitory activity against SU-DHL-10 cells", "setting": "SU-DHL-10", "value": "high inhibitory activities"}, {"measurement": "IC50", "setting": "Pfeiffer cells", "value": 7, "unit": "nM"}, {"measurement": "inhibitory activity against cells", "setting": "Pfeiffer cells; Table 10", "value": "high inhibitory activity"}, {"measurement": "Final pH", "setting": "[1]; 0.1M HCl", "value": 4.56}, {"measurement": "Phenomenon", "setting": "[1]; 0.1M HCl", "value": "clear"}, {"measurement": "Final pH", "setting": "[1]; H2O", "value": 8.32}, {"measurement": "Phenomenon", "setting": "[1]; H2O", "value": "turbid"}, {"measurement": "solubility at 24 h", "setting": "[1]; aqueous buffer, pH 4.5 buffer", "value": 3590, "unit": "µg/mL"}, {"measurement": "solubility at 24 h", "setting": "[1]; aqueous buffer, pH 6.8 buffer", "value": 840, "unit": "µg/mL"}, {"measurement": "Final pH", "setting": "[1]; pH 4.5 buffer", "value": 5.84}, {"measurement": "Phenomenon", "setting": "[1]; pH 4.5 buffer", "value": "turbid"}, {"measurement": "Final pH", "setting": "[1]; pH 6.8 buffer", "value": 6.74}, {"measurement": "Phenomenon", "setting": "[1]; pH 6.8 buffer", "value": "turbid"}, {"measurement": "solubility at 24 h", "setting": "[1]; simulated gastric fluid, 0.1M HCl", "value": "> 50000", "unit": "µg/mL"}, {"measurement": "solubility at 24 h", "setting": "[1]; water, H2O", "value": 60, "unit": "µg/mL"}, {"measurement": "inhibitory activity against SU-DHL-6 cells", "setting": "SU-DHL-6", "value": "high inhibitory activities"}]}
